Laboratory results from ChEMBL document CHEMBL1156447, “Cyanidin-3-rutinoside, a natural polyphenol antioxidant, selectively kills leukemic cells by induction of oxidative stress” (J Biol Chem, 2007).
Calls of active or inactive are those of the source. No cut-off for these calls is given here.

Legend:
HL-60 [1] = assay: Induction of apoptosis in human HL60 cells after 18 hrs by Hoechst 33258 staining; assay type: functional, cell-based
HL-60 [2] = assay: Induction of apoptosis in human HL60 cells at 60 uM by Hoechst 33258 staining; assay type: functional, cell-based; settings: TDE = time-dependent effect
HL-60 [3] = assay: Induction of apoptosis in human HL60 cells assessed as caspase 3 activation; assay type: functional, cell-based
HL-60 [4] = assay: Induction of apoptosis in human HL60 cells assessed as caspase 9 activation; assay type: functional, cell-based
HL-60 [5] = assay: Suppression of induction of apoptosis in human HL60 cells at 60 uM after 18 hrs in presence of Z-VAD; assay type: functional, cell-based
HL-60 [6] = assay: Suppression of induction of apoptosis in human HL60 cells at 60 uM after 18 hrs in presence of DEVD-CHO; assay type: functional, cell-based
HL-60 [7] = assay: Induction of apoptosis in human HL60 cells assessed as cytochrome c release at 80 uM by immunoblot analysis; assay type: functional, cell-based
HL-60 [8] = assay: Induction of apoptosis in human HL60 cells assessed as Smac release at 80 uM by immunoblot analysis; assay type: functional, cell-based
MOLT-4 = assay: Induction of apoptosis in human MOLT4 cells after 18 hrs by Hoechst staining; assay type: functional, cell-based
Daudi = assay: Induction of apoptosis in human Daudi cells after 18 hrs by Hoechst staining; assay type: functional, cell-based
CCRF-CEM [9] = assay: Induction of apoptosis in human CCRF-CEM cells after 18 hrs by Hoechst staining; assay type: functional, cell-based
[10] = Antioxidant activity in Ti(IV)-hydrogen peroxide complex system assessed as inhibition of hydrogen peroxide production; assay type: functional
[11] = Antioxidant activity assessed as inhibition of superoxide production; assay type: functional
[12] = Antioxidant activity assessed as inhibition of peroxyl radical production; assay type: functional
PBMC = assay: Antioxidant activity in human PBMC assessed as reduction in intracellular peroxide levels by flow cytometry; assay type: functional, cell-based
HL-60 [13] = assay: Increase in hydrogen peroxide accumulation in human HL60 cells at 80 uM by flow cytometry; assay type: functional, cell-based
HL-60 [14] = assay: Increase in intracellular hydrogen peroxide level in human HL60 cells after 1 hr by phenol red method; assay type: functional, cell-based
HL-60 [15] = assay: Suppression of induction of apoptosis in human HL60 cells at 80 uM after 18 hrs by Hoechst staining in presence of hydrogen peroxide; assay type: functional, cell-based
HL-60 [16] = assay: Suppression of induction of apoptosis in human HL60 cells at 80 uM after 18 hrs by Hoechst staining in presence of N-acetyl-cysteine; assay type: functional, cell-based
HL-60 [17] = assay: Suppression of induction of apoptosis in human HL60 cells at 80 uM after 18 hrs by Hoechst staining in presence of catalase; assay type: functional, cell-based
[18] = biological target: T1, MAP kinase p38 (Homo sapiens) (UniProt O15264+Q15759+Q16539+P53778); assay: Increase in p38 MAPK phosphorylation in human HL60 cells at 80 uM after 8 hrs by immunoblot analysis; assay type: cell-based; settings: HL-60
[19] = biological target: T2, c-Jun N-terminal kinase, JNK (Homo sapiens) (UniProt P45983+P53779+P45984); assay: Increase in JNK phosphorylation in human HL60 cells at 80 uM after 8 hrs by immunoblot analysis; assay type: cell-based; settings: HL-60
HL-60 [20] = assay: Suppression of induction of apoptosis in human HL60 cells assessed as inhibition of mitochondrial release of cytochrome c at 80 uM after 18 hrs […] in presence of SB-203580; assay type: functional, cell-based
HL-60 [21] = assay: Suppression of induction of apoptosis in human HL60 cells assessed as inhibition of mitochondrial release of cytochrome c at 80 uM after 18 hrs […] in presence of SP600125; assay type: functional, cell-based
HL-60 [22] = assay: Suppression of induction of apoptosis in human HL60 cells assessed as inhibition of mitochondrial release of Smac at 80 uM after 18 hrs […] in presence of SB-203580; assay type: functional, cell-based
HL-60 [23] = assay: Suppression of induction of apoptosis in human HL60 cells assessed as inhibition of mitochondrial release of Smac at 80 uM after 18 hrs […] in presence of SP600125; assay type: functional, cell-based
HL-60 [24] = assay: Suppression of induction of apoptosis in human HL60 cells at 80 uM after 18 hrs by Hoechst staining in presence of SB-203580; assay type: functional, cell-based
HL-60 [25] = assay: Suppression of induction of apoptosis in human HL60 cells at 80 uM after 18 hrs by Hoechst staining in presence of SP600125; assay type: functional, cell-based
[26] = biological target: T3, Bcl-2 homologous antagonist/killer (Homo sapiens) (UniProt Q16611); assay: Activation of Bak in human HL60 cells assessed as oligomerization and conformational change at 80 uM after 8 hrs by immunostaining; assay type: functional, cell-based; settings: HL-60
T3 sequence (whole entry): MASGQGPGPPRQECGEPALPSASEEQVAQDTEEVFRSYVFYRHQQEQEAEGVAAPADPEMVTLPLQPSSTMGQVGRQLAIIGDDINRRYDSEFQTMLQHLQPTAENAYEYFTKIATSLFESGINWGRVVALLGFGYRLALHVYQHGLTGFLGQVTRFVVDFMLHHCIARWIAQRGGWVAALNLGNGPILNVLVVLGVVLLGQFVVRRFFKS

[27] = biological target: Bcl-2-like protein 11 (Homo sapiens) (UniProt O43521); assay: Increase in Bim EL phosphorylation in human HL60 cells at 80 uM after 8 hrs by immunoblot analysis; assay type: cell-based; settings: HL-60
CCRF-CEM [28] = assay: Suppression of induction of apoptosis in human CCRF-CEM cells at 80 uM after 24 hrs by Hoechst staining in presence of SB-203580; assay type: functional, cell-based
CCRF-CEM [29] = assay: Suppression of induction of apoptosis in human CCRF-CEM cells at 80 uM after 24 hrs by Hoechst staining in presence of N-acetyl-cysteine; assay type: functional, cell-based
CCRF-CEM [30] = assay: Suppression of induction of apoptosis in human CCRF-CEM cells at 80 uM after 24 hrs by Hoechst staining in presence of catalase; assay type: functional, cell-based
HL-60 [31] = assay: Induction of apoptosis in human HL60 cells overexpressing human Bcl XL after 18 hrs by Hoechst staining; assay type: functional, cell-based
HL-60 [32] = assay: Induction of apoptosis in human HL60 cells overexpressing human Bcl2 after 18 hrs by Hoechst staining; assay type: functional, cell-based
[33] = biological target: T1, MAP kinase p38 (Homo sapiens); assay: Increase in p38 MAPK phosphorylation in catalase pretreated human HL60 cells at 80 uM after 8 hrs by immunoblot analysis; assay type: cell-based; settings: HL-60
[34] = biological target: T2, c-Jun N-terminal kinase, JNK (Homo sapiens); assay: Increase in JNK phosphorylation in N-acetyl-cysteine pretreated human HL60 cells at 80 uM after 8 hrs by immunoblot analysis; assay type: cell-based; settings: HL-60
[35] = biological target: T2, c-Jun N-terminal kinase, JNK (Homo sapiens); assay: Increase in JNK catalase pretreated human HL60 cells at 80 uM after 8 hrs by immunoblot analysis; assay type: cell-based; settings: HL-60
CCRF-CEM [36] = assay: Induction of apoptosis in human CCRF-CEM cells expressing shRNA against Bim at 80 uM after 24 hrs by Hoechst staining; assay type: functional, cell-based
[37] = biological target: Apoptosis regulator BAX (Homo sapiens) (UniProt Q07812); assay: Activation of Bax in human HL60 cells assessed as mitochondrial translocation at 80 uM after 8 hrs by immunostaining; settings: HL-60
[38] = biological target: T1, MAP kinase p38 (Homo sapiens); assay: Increase in p38 MAPK phosphorylation in N-acetyl-cysteine pretreated human HL60 cells at 80 uM after 2 hrs by immunoblot analysis; settings: HL-60

Apoptosis regulator BAX (Homo sapiens), sequence (Q07812 whole entry): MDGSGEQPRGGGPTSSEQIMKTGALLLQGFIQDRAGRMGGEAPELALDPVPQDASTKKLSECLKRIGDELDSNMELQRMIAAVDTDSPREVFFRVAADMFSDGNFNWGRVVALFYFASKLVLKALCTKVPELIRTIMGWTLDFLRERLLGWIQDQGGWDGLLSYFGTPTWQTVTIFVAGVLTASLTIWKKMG
Bcl-2-like protein 11 (Homo sapiens), sequence (O43521 whole entry, looked up): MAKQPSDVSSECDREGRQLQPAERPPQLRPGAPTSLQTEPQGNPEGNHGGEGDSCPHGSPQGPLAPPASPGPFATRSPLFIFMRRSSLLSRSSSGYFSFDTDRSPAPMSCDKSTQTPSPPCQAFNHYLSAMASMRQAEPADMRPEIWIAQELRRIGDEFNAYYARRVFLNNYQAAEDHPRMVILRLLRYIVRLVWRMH

C[C@@H]1O[C@@H](OC[C@H]2O[C@@H](Oc3cc4c(O)cc(O)cc4[o+]c3-c3ccc(O)c(O)c3)[C@H](O)[C@@H](O)[C@@H]2O)[C@H](O)[C@H](O)[C@H]1O
Activity (HL-60 [1]): Dose-dependent effect
Activity (HL-60 [2]): tde
Activity (HL-60 [3]): Dose-dependent effect
Activity (HL-60 [4]): Dose-dependent effect
Activity (HL-60 [5]): Active
Activity (HL-60 [6]): Active
Activity (HL-60 [7]): Active
Activity (HL-60 [8]): Active
Activity (MOLT-4): Active
Activity (Daudi): Active
Activity (CCRF-CEM [9]): Active
Activity [10]: Dose-dependent effect
Activity [11]: Active
Activity [12]: Active
Activity (PBMC): Active
Activity (HL-60 [13]): Active
Activity (HL-60 [14]): Active
Activity (HL-60 [15]): Active
Activity (HL-60 [16]): Active
Activity (HL-60 [17]): Active
Activity [18]: Active
Activity [19]: Active
Activity (HL-60 [20]): Active
Activity (HL-60 [21]): Active
Activity (HL-60 [22]): Active
Activity (HL-60 [23]): Active
Activity (HL-60 [24]): Active
Activity (HL-60 [25]): Active
Activity [26]: Active
Activity [27]: Active
Activity (CCRF-CEM [28]): Active
Activity (CCRF-CEM [29]): Active
Activity (CCRF-CEM [30]): Active
Activity (HL-60 [31]): inactive
Activity (HL-60 [32]): inactive
Activity [33]: inactive
Activity [34]: inactive
Activity [35]: inactive
Activity (CCRF-CEM [36]): inactive
Activity [37]: Active
Activity [38]: inactive
